Source: BigSolDB 2.1

CCCCCOC(=O)Nc1nc(=O)n([C@@H]2O[C@H](C)[C@@H](O)[C@H]2O)cc1F
Conditions | solubility (mole fraction)
in 2-ethylhexanol, 278.02 K | 0.0011
in 2-ethylhexanol, 282.93 K | 0.0013
in 2-ethylhexanol, 287.88 K | 0.0019
in 2-ethylhexanol, 292.57 K | 0.0027
in 2-ethylhexanol, 297.38 K | 0.0036
in 2-ethylhexanol, 302.24 K | 0.005
in 2-ethylhexanol, 307.13 K | 0.0069
in 2-ethylhexanol, 312.04 K | 0.0096
in 2-ethylhexanol, 316.73 K | 0.0125
in 2-ethylhexanol, 321.76 K | 0.0173
in 2-octanol, 278.04 K | 0.001
in 2-octanol, 282.95 K | 0.0014
in 2-octanol, 287.9 K | 0.0018
in 2-octanol, 292.55 K | 0.0025
in 2-octanol, 298.45 K | 0.0036
in 2-octanol, 302.3 K | 0.0047
in 2-octanol, 307.15 K | 0.0064
in 2-octanol, 312.05 K | 0.0087
in 2-octanol, 317.75 K | 0.0116
in 2-octanol, 322.2 K | 0.0151
in ethanol, 278.25 K | 0.0099
in ethanol, 282.86 K | 0.0123
in ethanol, 287.85 K | 0.017
in ethanol, 292.84 K | 0.0247
in ethanol, 297.75 K | 0.0353
in ethanol, 302.55 K | 0.048
in ethanol, 307.25 K | 0.0676
in ethanol, 312.14 K | 0.0933
in ethanol, 317.35 K | 0.127
in ethanol, 322.13 K | 0.166
in ethylene glycol, 278.65 K | 0.01
in ethylene glycol, 283.15 K | 0.0125
in ethylene glycol, 287.95 K | 0.017
in ethylene glycol, 293 K | 0.021
in ethylene glycol, 297.95 K | 0.0267
in ethylene glycol, 302.95 K | 0.0348
in ethylene glycol, 307.65 K | 0.0437
in ethylene glycol, 312.1 K | 0.0539
in ethylene glycol, 316.85 K | 0.0661
in ethylene glycol, 322.25 K | 0.0877
in isobutanol, 278.26 K | 0.0012
in isobutanol, 283.15 K | 0.0018
in isobutanol, 288.1 K | 0.0029
in isobutanol, 293.38 K | 0.0046
in isobutanol, 298.02 K | 0.007
in isobutanol, 302.85 K | 0.0107
in isobutanol, 307.4 K | 0.0156
in isobutanol, 312.25 K | 0.0232
in isobutanol, 316.95 K | 0.0336
in isobutanol, 321.95 K | 0.0492
in isopentanol, 278.25 K | 0.0027
in isopentanol, 282.97 K | 0.0038
in isopentanol, 288.76 K | 0.0057
in isopentanol, 292.64 K | 0.0074
in isopentanol, 297.33 K | 0.0102
in isopentanol, 302.27 K | 0.0141
in isopentanol, 307.06 K | 0.0193
in isopentanol, 312.04 K | 0.0267
in isopentanol, 316.78 K | 0.0361
in isopentanol, 321.47 K | 0.0485
in isopropanol, 277.98 K | 0.0011
in isopropanol, 283.49 K | 0.0016
in isopropanol, 288.07 K | 0.0024
in isopropanol, 293.16 K | 0.0037
in isopropanol, 297.34 K | 0.0053
in isopropanol, 302.29 K | 0.0079
in isopropanol, 307.07 K | 0.0115
in isopropanol, 312.14 K | 0.017
in isopropanol, 316.88 K | 0.0241
in isopropanol, 321.47 K | 0.034
in n-butanol, 278.1 K | 0.0021
in n-butanol, 283.03 K | 0.003
in n-butanol, 288.02 K | 0.0045
in n-butanol, 293.53 K | 0.007
in n-butanol, 298 K | 0.0106
in n-butanol, 303.15 K | 0.016
in n-butanol, 308.25 K | 0.0239
in n-butanol, 312.35 K | 0.0351
in n-butanol, 317.4 K | 0.051
in n-butanol, 322.49 K | 0.077
in n-heptanol, 278 K | 0.0018
in n-heptanol, 283.15 K | 0.0025
in n-heptanol, 288.33 K | 0.0036
in n-heptanol, 292.53 K | 0.0047
in n-heptanol, 297.63 K | 0.0065
in n-heptanol, 303.3 K | 0.0092
in n-heptanol, 308.35 K | 0.0126
in n-heptanol, 313.25 K | 0.017
in n-heptanol, 318.05 K | 0.0226
in n-heptanol, 322.85 K | 0.0299
in n-hexanol, 278.1 K | 0.0018
in n-hexanol, 284.33 K | 0.0029
in n-hexanol, 287.97 K | 0.0038
in n-hexanol, 293.85 K | 0.006
in n-hexanol, 297.6 K | 0.008
in n-hexanol, 303.55 K | 0.0125
in n-hexanol, 308.55 K | 0.0173
in n-hexanol, 313.15 K | 0.0241
in n-hexanol, 317.75 K | 0.0333
in n-hexanol, 322.25 K | 0.0461
in n-octanol, 278.65 K | 0.0022
in n-octanol, 283 K | 0.003
in n-octanol, 287.98 K | 0.004
in n-octanol, 292.95 K | 0.0055
in n-octanol, 298.35 K | 0.0076
in n-octanol, 302.94 K | 0.01
in n-octanol, 307.5 K | 0.0131
in n-octanol, 312.35 K | 0.0173
in n-octanol, 317.05 K | 0.0226
in n-octanol, 322.05 K | 0.0307
in n-pentanol, 278.2 K | 0.002
in n-pentanol, 282.97 K | 0.0031
in n-pentanol, 288.26 K | 0.0051
in n-pentanol, 292.64 K | 0.0071
in n-pentanol, 297.33 K | 0.0101
in n-pentanol, 302.27 K | 0.0146
in n-pentanol, 307.06 K | 0.0205
in n-pentanol, 312.04 K | 0.0292
in n-pentanol, 316.78 K | 0.0404
in n-pentanol, 321.47 K | 0.0555
in n-propanol, 278 K | 0.0024
in n-propanol, 283.06 K | 0.0037
in n-propanol, 287.98 K | 0.0055
in n-propanol, 292.87 K | 0.0088
in n-propanol, 297.33 K | 0.0132
in n-propanol, 302.29 K | 0.0205
in n-propanol, 307.07 K | 0.0309
in n-propanol, 312.14 K | 0.0471
in n-propanol, 316.88 K | 0.0687
in n-propanol, 321.47 K | 0.0997
in sec-butanol, 278.15 K | 0.001
in sec-butanol, 283.17 K | 0.0016
in sec-butanol, 288.13 K | 0.0026
in sec-butanol, 293.35 K | 0.0043
in sec-butanol, 298.44 K | 0.0065
in sec-butanol, 302.9 K | 0.0093
in sec-butanol, 307.65 K | 0.014
in sec-butanol, 312.44 K | 0.0207
in sec-butanol, 317.25 K | 0.0301
in sec-butanol, 321.9 K | 0.0428
in tert-butanol, 299.65 K | 0.0078
in tert-butanol, 302.75 K | 0.0096
in tert-butanol, 307.43 K | 0.0139
in tert-butanol, 312.2 K | 0.0199
in tert-butanol, 317.04 K | 0.0294
in tert-butanol, 321.65 K | 0.0423
in water, 278.25 K | 0.0009
in water, 283.2 K | 0.001
in water, 288.3 K | 0.001
in water, 293.25 K | 0.0011
in water, 298.25 K | 0.0012
in water, 302.8 K | 0.0013
in water, 308 K | 0.0014
in water, 312.95 K | 0.0015
in water, 317.65 K | 0.0016
in water, 322.75 K | 0.0017
